Experimental data: paper PMC12717099, “Peptidoglycan recruitment by a penicillin binding protein” (Nature Communications, 2025)
Where two headings read alike, the source gives them in different places.

Assays:
PBP4 = conditions: for STD amplification factor, 2000: protein:peptide 1:100, 2 s saturation
Method: STD NMR experiments were carried out on 0.02 mM unlabeled PBP5T485, PBP4, and PBP2B in NMR buffer (10 mM MES pH 5.8, 25 mM NaCl) at 308 K with the peptides (SP1, SP2, SP4, SP5 and SP6 with PBP5, SP2 also with PBP4 and PBP2B) at 1:100 PBP5:peptide molar ratios using a pseudo 2D pulse sequence that leverages a shaped pulse train for saturation and selected water suppression by excitation sculpting with gradients. All STD experiments were performed at 800 MHz for best resolution and least signal overlap. Total saturation time for STD measurements was 2 s. A 2 s recycling delay, and 64 scans were used for all STD experiments. Selective protein saturation was achieved by setting the on-resonance frequency on PBP5 methyl peaks at 0.73 ppm. For the off-resonance (reference) spectrum, the irradiation frequency was shifted to −40 ppm. […] LTotal/PTotal is the ligand excess relative to a constant protein concentration.
For a uniform analysis, we normalized the STD amplification factor by using the highest STD amplification factor in the SP1:PBP5 analysis and using the same STD amplification factor to normalize other SPs (SP2-6) to allow for a rigorous comparison. For the analysis of the STD NMR data only data from non-exchangeable protons (CH groups) were utilized. Overlapped peaks were completely excluded from the analysis.

[1] = test system: E. faecium D344SRF pCWR624Δpbp5_pbp5_V6; assay: MIC by broth microdilution, pbp5_V6; assay type: cell-based, Enterococcus faecium; conditions: strain pbp5_V6 (E284A_E291A_S294A_N295A); 37 °C, 20 h; n=3
Method: (§1) The synthetic genes were purchased from GeneWiz (South Plainfield, NJ). The ribosome binding site sequence AGGAGG (Shine-Dalgarno), and a string of five A’s followed by the sequence […], that corresponds to the first 15 bp found in pbp5 from E. faecium C68 were added upstream of the START codon. The terminator sequence […] was added downstream of the STOP codon. BamHI restriction sites were added to the flanking 5′ and 3′ ends. The synthetic genes were inserted into the vector pCWR624Δpbp5. This vector was derived from pCWR624[10], in which the pbp5 gene from D366 was excised by digestion with BamHI followed by re-ligation of the vector, allowing subsequent insertion of modified synthetic pbp5s into the BamHI site downstream of ftsWEfm and psr from E. faecium C68[10]. The synthetic genes were inserted in a BamHI site located downstream of psr. The proper orientation was confirmed by PCR amplification using the forward primer OR_pbp5_FOR_1 (5′-[…]-3′) and the reverse primer OR_pbp5_REV_1 (5′-[…]-3′). Plasmids were sequence verified for the specific binding site mutations. The resulting constructions were electroporated into the natural pbp5(-) mutant E. faecium D344SRF with a selection on brain heart infusion agar (BHI) plates containing kanamycin (1500 µg/ml).
(§2) E. faecium strains were streaked fresh from −80 °C stored glycerol stocks onto brain heart infusion (BHI) agar plates and incubated for 18 h at 37 °C. Strains harboring the plasmid derivatives were grown under antibiotic pressure on agar plates containing kanamycin at 1500 µg/ml. A single colony was inoculated into BHI or BHI-kanamycin (1500 µg/ml) for overnight cultures (18 h).
MIC determination was performed using a standard broth microdilution technique in duplicate from independent cultures. Overnight cultures were inoculated into 3 ml of BHI or BHI-kanamycin (1500 µg/ml) broth in a dilution of 1:100 and incubated until an OD600 of ~0.5 was reached. Cultures were diluted 1:1000 and inoculated into the 96-well plates with the corresponding antibiotics to be tested. Plates were incubated at 37 °C for 20 h and read by eye. […]

[2] = test system: E. faecium D344SRF pCWR624Δpbp5_pbp5_V4; assay: Disk diffusion assay, pbp5_V4; assay type: cell-based, Enterococcus faecium; conditions: strain pbp5_V4 (D530A_L533A_W457A); 37 °C, 24 h; n=3
Method: as §1, §2
(§3) Antibiotic disks used were manufactured by BD BBL^TM. Disk diffusion assays were performed according to the Clinical and Laboratory Standards Institute (CLSI) guidance. Overnight cultures were inoculated into 3 ml of BHI or BHI-kanamycin (1500 µg/ml) broth with a dilution of 1:100 and incubated until an OD600 of ~0.5 was reached. […] The plates were incubated at 37 °C and the zones of inhibition were measured after 24 h. […]

[3] = test system: E. faecium D344SRF pCWR624Δpbp5_pbp5_V1; assay: Disk diffusion assay, pbp5_V1; assay type: cell-based, Enterococcus faecium; conditions: strain pbp5_V1 (N523A); 37 °C, 24 h; n=3
Method: as §1, §2, §3

[4] = test system: E. faecium D344SRF pCWR624Δpbp5_pbp5_V6; assay: Disk diffusion assay, pbp5_V6; assay type: cell-based, Enterococcus faecium; conditions: strain pbp5_V6 (E284A_E291A_S294A_N295A); 37 °C, 24 h; n=3
Method: as §1, §2, §3

[5] = test system: E. faecium D344SRF pCWR624Δpbp5_pbp5_V2; assay: MIC by broth microdilution, pbp5_V2; assay type: cell-based, Enterococcus faecium; conditions: strain pbp5_V2 (N523A_Q627A); 37 °C, 20 h; n=3
Method: as §2

[6] = test system: E. faecium D344SRF pCWR624Δpbp5_pbp5_V3; assay: Disk diffusion assay, pbp5_V3; assay type: cell-based, Enterococcus faecium; conditions: strain pbp5_V3 (loop 625-631); 37 °C, 24 h; n=3
Method: as §1, §2, §3

Molecule: D-Lac-L-Ala-D-iGln-L-Lys(D-iAsn) [SP2]
- STD % to SP1 (PBP4; 1H DLacβ): 28.7108%
- STD amplification factor as fraction of highest SP1:PBP5 value (PBP4; 1H DLacβ): 0.2871
- STD amplification factor, 2000 (PBP4; 1H DLacβ): 7.726
- STD % to SP1 (PBP4; 1H DQ2β (first listed)): 57.5161%
- STD amplification factor as fraction of highest SP1:PBP5 value (PBP4; 1H DQ2β (first listed)): 0.5752
- STD amplification factor, 2000 (PBP4; 1H DQ2β (first listed)): 15.4766
- STD % to SP1 (PBP4; 1H DQ2β (second listed)): 62.3639%
- STD amplification factor as fraction of highest SP1:PBP5 value (PBP4; 1H DQ2β (second listed)): 0.6236
- STD amplification factor, 2000 (PBP4; 1H DQ2β (second listed)): 16.7811
- STD % to SP1 (PBP4; 1H DQ2γ): 18.9556%
- STD amplification factor as fraction of highest SP1:PBP5 value (PBP4; 1H DQ2γ): 0.1896
- STD amplification factor, 2000 (PBP4; 1H DQ2γ): 5.101
- STD % to SP1 (PBP4; 1H K3α): 41.8044%
- STD amplification factor as fraction of highest SP1:PBP5 value (PBP4; 1H K3α): 0.418
- STD amplification factor, 2000 (PBP4; 1H K3α): 11.2489
- STD % to SP1 (PBP4; 1H K3β): 89.5852%
- STD amplification factor as fraction of highest SP1:PBP5 value (PBP4; 1H K3β): 0.8959
- STD amplification factor, 2000 (PBP4; 1H K3β): 24.1059
- STD % to SP1 (PBP4; 1H K3γ): 46.145%
- STD amplification factor as fraction of highest SP1:PBP5 value (PBP4; 1H K3γ): 0.4615
- STD amplification factor, 2000 (PBP4; 1H K3γ): 12.4169
- STD % to SP1 (PBP4; 1H K3δ): 58.6188%
- STD amplification factor as fraction of highest SP1:PBP5 value (PBP4; 1H K3δ): 0.5862
- STD amplification factor, 2000 (PBP4; 1H K3δ): 15.7734
- STD % to SP1 (PBP4; 1H K3ε): 16.4854%
- STD amplification factor as fraction of highest SP1:PBP5 value (PBP4; 1H K3ε): 0.1649
- STD amplification factor, 2000 (PBP4; 1H K3ε): 4.436
- STD % to SP1 (PBP4; 1H LA1α): 41.4108%
- STD amplification factor as fraction of highest SP1:PBP5 value (PBP4; 1H LA1α): 0.4141
- STD amplification factor, 2000 (PBP4; 1H LA1α): 11.143
- STD % to SP1 (PBP4; 1H LA1β): 30.5144%
- STD amplification factor as fraction of highest SP1:PBP5 value (PBP4; 1H LA1β): 0.3051
- STD amplification factor, 2000 (PBP4; 1H LA1β): 8.211
- STD % to SP1 (PBP4; 1H iNα,DQ2α): 21.1266%
- STD amplification factor as fraction of highest SP1:PBP5 value (PBP4; 1H iNα,DQ2α): 0.2113
- STD amplification factor, 2000 (PBP4; 1H iNα,DQ2α): 5.685
- STD % to SP1 (PBP4; 1H iNβ): 26.2423%
- STD amplification factor as fraction of highest SP1:PBP5 value (PBP4; 1H iNβ): 0.2624
- STD amplification factor, 2000 (PBP4; 1H iNβ): 7.061

Molecule: CO/N=C(\C(=O)N[C@@H]1C(=O)N2C(C(=O)O)=C(CSc3nc(=O)c(=O)[nH]n3C)CS[C@H]12)c1csc(N)n1 [Ceftriaxone, ceftriaxone]
- MIC (µg/ml) [Range] [1]: > 3200 [>3200] µg/ml
- Zone Size (mm) [Range] [2]: 26 [26-28] mm
- Zone Size (mm) [Range] [3]: 0 [0] mm
- Zone Size (mm) [Range] [4]: 0 [0] mm
- MIC (µg/ml) [Range] [5]: 50 [50-100] µg/ml
- Zone Size (mm) [Range] [6]: 28 [26-28] mm
